{"source": "paper PMC6291622", "about": "“Vitamin E Increases Antimicrobial Sensitivity by Inhibiting Bacterial Lipocalin Antibiotic Binding” (mSphere, 2018)", "target": "T1, BcnA (Burkholderia cenocepacia, UniProt B4EE32)", "T1 construct": "gene BCAL3311; purified BcnA expressed from pET28a-bcnA in E. coli BL21", "T1 sequence (B4EE32 27-186)": "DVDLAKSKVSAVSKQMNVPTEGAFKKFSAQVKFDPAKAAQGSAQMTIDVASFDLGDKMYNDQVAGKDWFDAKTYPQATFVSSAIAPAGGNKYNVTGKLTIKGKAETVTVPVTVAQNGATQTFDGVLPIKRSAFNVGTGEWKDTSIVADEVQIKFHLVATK", "assay": "isothermal titration calorimetry (ITC), […]°C, PBS pH […], N = […]", "type": "binding"}
{"smiles": "CCn1cc(C(=O)O)c(=O)c2cc(F)c(N3CCNCC3)cc21", "note": "[norfloxacin]", "values": [{"measurement": "Kd", "result": 4.9, "unit": "mM"}]}
